Measured values taken from US20180338980A1, “AROMATIC SULFONAMIDE DERIVATIVES” (BAYER PHARMA AKTIENGESELLSCHAFT, priority 2015, published 2018).

Legend:
P2X4 [1] = target: T1, P2X4 (Homo sapiens, UniProt Q99571); test: Assay B: human P2X4 receptor cell line, mitochondrial photina luminescence (agonist Bz-ATP at EC50); type: cell-based; design: host or cells: HEK 293 (recombinant, constitutively expressing; with mitochondrial photina in Assay B); conditions: HEK human P2X4 cell line, photina luminescence, agonist Bz-ATP at EC50, average; for Emax: read-out: human P2X4 Assay B avg Efficacy
T1 sequence (Q99571 1-388): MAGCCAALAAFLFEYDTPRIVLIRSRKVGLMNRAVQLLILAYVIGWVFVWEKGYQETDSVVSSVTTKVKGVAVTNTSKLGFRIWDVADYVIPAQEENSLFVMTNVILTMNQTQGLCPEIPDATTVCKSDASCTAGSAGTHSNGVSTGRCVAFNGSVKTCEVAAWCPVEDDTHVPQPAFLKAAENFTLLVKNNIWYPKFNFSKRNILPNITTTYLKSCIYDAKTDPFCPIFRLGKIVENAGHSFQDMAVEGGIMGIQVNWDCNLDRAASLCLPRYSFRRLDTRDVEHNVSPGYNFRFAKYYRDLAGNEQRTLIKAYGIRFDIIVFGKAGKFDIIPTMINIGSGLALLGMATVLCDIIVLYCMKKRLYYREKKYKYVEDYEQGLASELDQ
Outline: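 Recombinant cell line constitutively expressing human P2X4 and mitochondrial photina photoprotein, reconstituted with coelenterazine. Receptor stimulated with Bz-ATP at EC50; calcium influx read immediately as luminescence.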

P2X4 [2] = target: T1, P2X4; test: Assay A: human P2X4 receptor cell line, FLIPR calcium assay (Fluo-8, agonist Bz-ATP at EC80); type: cell-based; design: host or cells: HEK 293 (recombinant, constitutively expressing; with mitochondrial photina in Assay B); conditions: HEK human P2X4 cells, Fluo-8 FLIPR; for IC50: Bz-ATP at EC80, average values; for Emax: percentage of maximal inhibition, read-out: human P2X4 Assay A avg Efficacy
Outline: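 HEK cells expressing human P2X4 (20,000/well, plated ~20 h earlier) loaded 30 min with 5 μM Fluo-8 in HBSS/HEPES buffer with 1.8 mM CaCl2, 1 mM MgCl2, 2 mM probenecid, pH 7.4. Antagonist preincubated 30 min at room temperature (0.5% DMSO), then Bz-ATP at EC80. Peak fluorescence over 120 s, normalized to DMSO; triplicate IC50 and Hill fits.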

## COc1cccc(COc2ccc(NC(=O)Cc3ccccc3Cl)cc2S(N)(=O)=O)c1 [Example 140, 2-(2-Chlorophenyl)-N-{4-[(3-methoxybenzyl)oxy]-3-sulfamoylphenyl}acetamide]
P2X4 [1]
  IC50: 44 nM
  Emax: 67%
P2X4 [2]
  IC50: 8 nM
  Emax: 103%

## N#Cc1cccc(COc2ccc(NC(=O)Cc3ccccc3Cl)cc2S(N)(=O)=O)c1 [Example 142, 2-(2-Chlorophenyl)-N-{4-[(3-cyanobenzyl)oxy]-3-sulfamoylphenyl}acetamide]
P2X4 [1]
  IC50: 60 nM
  Emax: 70%
P2X4 [2]
  IC50: 43 nM
  Emax: 90%

## NS(=O)(=O)c1cc(NC(=O)Cc2ccccc2Cl)ccc1OCc1ccc(F)cc1 [Example 143, 2-(2-Chlorophenyl)-N-{4-[(4-fluorobenzyl)oxy]-3-sulfamoylphenyl}acetamide]
P2X4 [1]
  IC50: 39 nM
  Emax: 71%
P2X4 [2]
  IC50: 9 nM
  Emax: 72%

## NS(=O)(=O)c1cc(NC(=O)Cc2ccccc2Cl)ccc1OCc1ccccc1Cl [Example 144, N-{4-[(2-Chlorobenzyl)oxy]-3-sulfamoylphenyl}-2-(2-chlorophenyl)acetamide]
P2X4 [1]
  IC50: 129 nM
  Emax: 76%
P2X4 [2]
  IC50: 86 nM
  Emax: 93%

## NS(=O)(=O)c1cc(NC(=O)Cc2ccccc2Cl)ccc1OCc1cccnc1 [Example 149, 2-(2-Chlorophenyl)-N-[4-(pyridin-3-ylmethoxy)-3-sulfamoylphenyl]acetamide]
P2X4 [1]
  IC50: 118 nM
  Emax: 77%
P2X4 [2]
  IC50: 45 nM
  Emax: 81%

## NS(=O)(=O)c1cc(NC(=O)Cc2ccccc2Cl)ccc1OCc1ccccn1 [Example 150, 2-(2-Chlorophenyl)-N-[4-(pyridin-2-ylmethoxy)-3-sulfamoylphenyl]acetamide]
P2X4 [1]
  Emax: 79%
P2X4 [2]
  Emax: 96%

## NS(=O)(=O)c1cc(NC(=O)Cc2ccccc2Cl)ccc1OCc1ccncc1 [Example 151, 2-(2-Chlorophenyl)-N-[4-(pyridin-4-ylmethoxy)-3-sulfamoylphenyl]acetamide]
P2X4 [1]
  IC50: 69 nM
  Emax: 97%
P2X4 [2]
  IC50: 143 nM
  Emax: 88%

## NS(=O)(=O)c1cc(NC(=O)Cc2ccccc2Cl)ccc1OCCc1ccccc1 [Example 155, 2-(2-Chlorophenyl)-N-[4-(2-phenylethoxy)-3-sulfamoylphenyl]acetamide]
P2X4 [1]
  Emax: 65%
P2X4 [2]
  Emax: 87%

## NS(=O)(=O)c1cc(NC(=O)Cc2ccccc2Cl)ccc1OCC1CCC1 [Example 157, 2-(2-Chlorophenyl)-N-[4-(cyclobutylmethoxy)-3-sulfamoylphenyl]acetamide]
P2X4 [1]
  Emax: 55%
P2X4 [2]
  Emax: 67%

## NS(=O)(=O)c1cc(NC(=O)Cc2ccccc2Cl)ccc1OCC1CCO1 (stereo not shown) [Example 158, 2-(2-Chlorophenyl)-N-[4-(oxetan-2-ylmethoxy)-3-sulfamoylphenyl]acetamide]
P2X4 [1]
  Emax: 75%
P2X4 [2]
  Emax: 91%

## NS(=O)(=O)c1cc(NC(=O)Cc2ccccc2Cl)ccc1OCC1CCCOC1 (stereo not shown) [Example 165, 2-(2-Chlorophenyl)-N-[3-sulfamoyl-4-(tetrahydro-2H-pyran-3-ylmethoxy)phenyl]acetamide]
P2X4 [1]
  IC50: 97 nM
  Emax: 43%
P2X4 [2]
  IC50: 162 nM
  Emax: 59%

## NS(=O)(=O)c1cc(NC(=O)Cc2cccc(F)c2Cl)ccc1OCC1CCOCC1 [Example 167, 2-(2-Chloro-3-fluorophenyl)-N-[3-sulfamoyl-4-(tetrahydro-2H-pyran-4-ylmethoxy)phenyl]acetamide]
P2X4 [1]
  Emax: 80%
P2X4 [2]
  Emax: 87%

## NS(=O)(=O)c1cc(NC(=O)Cc2ccccc2Cl)cnc1Oc1cccc(C(F)(F)F)c1 [Example 168, 2-(2-chlorophenyl)-N-{5-sulfamoyl-6-[3-(trifluoromethyl)phenoxy]pyridin-3-yl}acetamide]
P2X4 [1]
  IC50: 181 nM
  Emax: 85%
P2X4 [2]
  IC50: 86 nM
  Emax: 90%

## NS(=O)(=O)c1cc(NC(=O)Cc2ccccc2)cnc1Oc1cccc(C(F)(F)F)c1 [Example 169, 2-Phenyl-N-{5-sulfamoyl-6-[3-(trifluoromethyl)phenoxy]pyridin-3-yl}acetamide]
P2X4 [1]
  IC50: 1030 nM
  Emax: 75%
P2X4 [2]
  IC50: 274 nM
  Emax: 74%
